Data from the NIST ThermoML archive (doi:10.1016/j.jct.2015.12.031).

Tests used:
[1] = mn = molality of the nth substance listed, in mol/kg; conditions: 86.5 kPa, Liquid, m2 = 0; for speed of sound: Frequency=3 MHz, Sing-around technique in a fixed-path interferometer; for mass density: Vibrating tube method
[2] = refractive index (Na D-line) (dimensionless); mn = molality of the nth substance listed, in mol/kg; conditions: 86.5 kPa, Liquid, Standard Abbe refractometry, m2 = 0
[3] = Liquid; for speed of sound: Sing-around technique in a fixed-path interferometer; for mass density: Vibrating tube method
[4] = refractive index (Na D-line) (dimensionless); conditions: Liquid, Standard Abbe refractometry

CCCCCCCC [octane] + c1ccsc1
Conditions	mass density, [1] [kg/m3]	refractive index, [2]	speed of sound, [1] [m/s]
288.15 K	706.994	1.3998	1214.5
293.15 K	702.995	1.3973	1193.3
298.15 K	698.923	1.3949	1172.4
303.15 K	694.878	1.3924	1151.5

c1ccsc1 [thiophene]
101.33 kPa
Conditions	mass density, [3] [kg/m3]	refractive index, [4]	speed of sound, [3] [m/s]
298.15 K	1058.56	1.5252	1279
303.15 K	–	–	1258.7

CCCCCCCCn1cc[n+](C)c1.[Br-] [1-methyl-3-octylimidazolium bromide]
[3], 86.5 kPa, Frequency=3 MHz
Conditions	speed of sound [m/s]
288.15 K	1605.2
293.15 K	1581.9
298.15 K	1561.9
303.15 K	1542.8

86.5 kPa
Conditions	mass density, 288.15 K [kg/m3]	mass density, 293.15 K [kg/m3]	mass density, 298.15 K [kg/m3]	mass density, 303.15 K [kg/m3]	refractive index, 288.15 K	refractive index, 293.15 K	refractive index, 298.15 K	refractive index, 303.15 K
[3]	1179.37	1176.17	1172.98	1169.86	–	–	–	–
[4]	–	–	–	–	1.525	1.5236	1.5221	1.5206

CCCCCCn1cc[n+](C)c1.[Br-] [3-hexyl-1-methyl-1H-imidazolium bromide]
[3], 86.5 kPa, Frequency=3 MHz
Conditions	speed of sound [m/s]
288.15 K	1639.4
293.15 K	1610.4
298.15 K	1587.1
303.15 K	1568.7

86.5 kPa
Conditions	mass density, 288.15 K [kg/m3]	mass density, 293.15 K [kg/m3]	mass density, 298.15 K [kg/m3]	mass density, 303.15 K [kg/m3]	refractive index, 288.15 K	refractive index, 293.15 K	refractive index, 298.15 K	refractive index, 303.15 K
[3]	1231.02	1227.43	1223.74	1220.35	–	–	–	–
[4]	–	–	–	–	1.5282	1.5268	1.5254	1.5237

CCCCCCCC [octane]
[3], 86.5 kPa, Frequency=3 MHz
Conditions	speed of sound [m/s]
288.15 K	1214.5
293.15 K	1193.3
298.15 K	1172.4
303.15 K	1151.5

86.5 kPa
Conditions	mass density, 288.15 K [kg/m3]	mass density, 293.15 K [kg/m3]	mass density, 298.15 K [kg/m3]	mass density, 303.15 K [kg/m3]	refractive index, 288.15 K	refractive index, 293.15 K	refractive index, 298.15 K	refractive index, 303.15 K
[3]	706.994	702.995	698.923	694.878	–	–	–	–
[4]	–	–	–	–	1.3998	1.3973	1.3949	1.3924
